For assay [1], the target named is T1, N-terminal GST-tagged recombinant human Flt3, residues 564-end (Homo sapiens, UniProt P36888).
T1 construct: recombinant human Flt3, residues 564-end; GST (N); purchased Upstate USA Inc, 706 Forest Street, Charlottesville, Va
T1 sequence (P36888 564-993 limits assumed): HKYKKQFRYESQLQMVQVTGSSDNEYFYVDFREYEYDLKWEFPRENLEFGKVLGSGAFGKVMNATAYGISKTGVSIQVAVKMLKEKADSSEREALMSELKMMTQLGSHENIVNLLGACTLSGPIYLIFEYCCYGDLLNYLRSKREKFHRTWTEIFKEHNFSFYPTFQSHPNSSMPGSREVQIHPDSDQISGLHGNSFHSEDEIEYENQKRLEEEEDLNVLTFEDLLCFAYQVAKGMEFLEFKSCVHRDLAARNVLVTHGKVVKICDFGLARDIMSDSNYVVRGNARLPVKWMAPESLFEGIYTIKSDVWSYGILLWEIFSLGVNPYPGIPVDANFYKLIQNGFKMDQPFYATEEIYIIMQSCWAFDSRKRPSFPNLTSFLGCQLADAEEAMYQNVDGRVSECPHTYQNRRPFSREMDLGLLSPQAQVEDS
Description: Flt3 kinase inhibition assay (33P-ATP filter assay). The format is biochemical. To be noted: 40 minutes at room temperature. Summed up:
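Serial compound dilutions incubated 40 min at room temperature with 5-10 mU Flt3 kinase, 50 μM peptide substrate and [γ-33P]ATP/10 mM magnesium acetate, pH 7.0. Phosphoric acid stop, filter capture and scintillation counting; activity compared with uninhibited reactions.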

Assay [2] has as its target T2, N-terminal His6-tagged recombinant human KDR, residues 790-end (Homo sapiens, UniProt P35968).
T2 construct: recombinant human KDR, residues 790-end; His6 (N); purchased Upstate USA Inc, 706 Forest Street, Charlottesville, Va
The assay is described as follows: KDR kinase inhibition assay (33P-ATP filter assay). Type of assay: biochemical. Summed up: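 His6-tagged human KDR (residues 790-end, 5-10 mU) with 0.33 mg/mL myelin basic protein in 8 mM MOPS pH 7.0, 0.2 mM EDTA, 10 mM magnesium acetate and [γ-33P]ATP; 40 min at room temperature. Stopped with phosphoric acid, filter-bound 33P counted; inhibition relative to no-inhibitor controls.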

Assay [3] concerns HCT116 cells. The assay is described as follows: Whole cell cytotoxicity assay, Sulforhodamine B. As to conditions: Homo sapiens, HCT-116, HCT116, 96 hours incubation, SRB; for GI50: read-out: GI50 HCT116 cell growth; for IC50: read-out: IC50 values in this assay (HCT116 cell growth). Type of assay: cell-based. Summed up: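 HCT116 cells (500/well) in DMEM/10% FBS/2 mM glutamine were preincubated 24 h, then exposed to compound for 96 h at 37 °C, 5% CO2, in duplicate. Cells were fixed with TCA and stained with sulforhodamine B (A570). GI50, TGI and LC50 were derived relative to a time-zero plate and an untreated control.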

[4] abbreviates: group with IC50 greater than 100 nM.

T2 sequence (P35968 790-1356 limits assumed): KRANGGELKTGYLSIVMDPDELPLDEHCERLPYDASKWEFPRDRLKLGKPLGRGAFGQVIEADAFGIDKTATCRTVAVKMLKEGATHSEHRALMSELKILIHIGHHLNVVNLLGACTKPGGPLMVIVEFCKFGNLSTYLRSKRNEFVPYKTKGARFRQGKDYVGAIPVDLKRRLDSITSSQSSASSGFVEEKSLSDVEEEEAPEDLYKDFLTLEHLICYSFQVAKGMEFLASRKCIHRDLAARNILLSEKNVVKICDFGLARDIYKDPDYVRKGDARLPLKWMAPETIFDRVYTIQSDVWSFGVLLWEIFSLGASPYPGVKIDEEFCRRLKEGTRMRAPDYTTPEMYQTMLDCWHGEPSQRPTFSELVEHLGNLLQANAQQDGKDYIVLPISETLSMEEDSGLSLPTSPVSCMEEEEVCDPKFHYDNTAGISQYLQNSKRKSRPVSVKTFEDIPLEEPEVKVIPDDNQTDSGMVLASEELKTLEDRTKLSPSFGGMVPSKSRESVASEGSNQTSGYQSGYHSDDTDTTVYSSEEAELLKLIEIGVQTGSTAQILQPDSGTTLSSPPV

`Cc1cc(Nc2cc(N3CCN(C)CC3)nc(-c3cccc(Cl)c3)n2)n[nH]1` [Compound 36, 2-(3-chlorophenyl)-N-(5-methyl-1H-pyrazol-3-yl)-6-(4-methylpiperazin-1-yl)pyrimidin-4-amine]: the half-maximal inhibitory concentration (IC50) in assay [1] and in assay [2] (40 minutes at room temperature) was no more than 100 nM throughout. Further, the GI50 in assay [3] is no more than 1000 nM.

`COCCNc1cc(Nc2cc(C)[nH]n2)nc(-c2ccccc2)n1` [Compound 10, N^4-(2-methoxyethyl)-N^6-(5-methyl-1H-pyrazol-3-yl)-2-phenylpyrimidine-4,6-diamine]: the values for the IC50 in assay [1], in assay [2] (40 minutes at room temperature) and in assay [3] were no more than 100 nM, no more than 100 nM and 1 to 10 µM, respectively.

On to `Cc1cc(Nc2cc(N3CCN(C)CC3)nc(-c3ccco3)n2)n[nH]1` [Compound 14, 2-(furan-2-yl)-N-(5-methyl-1H-pyrazol-3-yl)-6-(4-methylpiperazin-1-yl)-pyrimidin-4-amine], for which the IC50 in assay [1] is no more than 100 nM; in assay [2] (setting [4]), no more than 1000 nM; in assay [3], 1 to 10 µM.

`Cc1cc(Nc2cc(N3CCN(C)CC3)nc(-c3cc4cc(NS(=O)(=O)C5CC5)ccc4o3)n2)n[nH]1` [Example 155, N-(2-(4-(5-methyl-1H-pyrazol-3-ylamino)-6-(4-methylpiperazin-1-yl)pyrimidin-2-yl)benzofuran-5-yl)cyclopropanesulfonamide]: the IC50 in assay [1] and in assay [2] (40 minutes at room temperature) was no more than 100 nM each time. Also, the GI50 in assay [3] is no more than 1000 nM.

In the case of `COCCN(C)c1cc(Nc2cc(C)[nH]n2)nc(-c2ccccc2)n1` [Example 171, N^4-(2-methoxyethyl)-N^4-methyl-N^6-(5-methyl-1H-pyrazol-3-yl)-2-phenyl pyrimidine-4,6-diamine], the concentration for half-maximal inhibition (IC50) was no more than 100 nM in assay [1], no more than 100 nM in assay [2] (40 minutes at room temperature) and 1 to 10 µM in assay [3].

Take `Cc1cc(Nc2cc(N(C)CCN(C)C)nc(-c3cccc(Cl)c3)n2)n[nH]1` [Compound 49, 2-(3-chlorophenyl)-N^4-(2-(dimethylamino)ethyl)-N^4-methyl-N^6-(5-methyl-1H-pyrazol-3-yl)pyrimidine-4,6-diamine]: the IC50 in assay [1] and in assay [2] (40 minutes at room temperature) was no more than 100 nM in each case. Further, the GI50 in assay [3] was no more than 1000 nM.

`Cc1cc(Nc2cc(N3CCN(C)CC3)nc(-c3ccc4ccccc4c3)n2)n[nH]1` [Example 135, N-(5-methyl-1H-pyrazol-3-yl)-6-(4-methylpiperazin-1-yl)-2-(naphthalen-2-yl)pyrimidin-4-amine]: the IC50 in assay [1] and in assay [2] (40 minutes at room temperature) was no more than 100 nM in each case. For the same molecule, the GI50 in assay [3] was no more than 1000 nM.

In the case of `Cc1cccc(-c2nc(Nc3cc(C)[nH]n3)cc(N(C)CCN(C)C)n2)c1` [Compound 52, N^4-(2-(dimethylamino)ethyl)-N^4-methyl-N^6-(5-methyl-1H-pyrazol-3-yl)-2-m-tolylpyrimidine-4,6-diamine], the IC50 in assay [1] is no more than 100 nM; in assay [2] (setting [4]) it was no more than 1000 nM. Also, the GI50 in assay [3] is no more than 1000 nM.

Consider `Cc1cc(Nc2cc(N3CCN(C)CC3)nc(-c3ccccc3C)n2)n[nH]1` [Compound 40, N-(5-methyl-1H-pyrazol-3-yl)-6-(4-methylpiperazin-1-yl)-2-o-tolylpyrimidin-4-amine], for which the IC50 in assay [1] is no more than 100 nM; in assay [2] (40 minutes at room temperature) it was no more than 100 nM; in assay [3], 1 to 10 µM.

`Cc1cc(Nc2cc(N(C)CCN(C)C)nc(-c3cccc4ccoc34)n2)n[nH]1` [Example 205, 2-(benzofuran-7-yl)-N^4-(2-(dimethylamino)ethyl)-N^4-methyl-N^6-(5-methyl-1H-pyrazol-3-yl)pyrimidine-4,6-diamine]: the half-inhibitory concentration (IC50) was no more than 100 nM in assay [1], no more than 1000 nM in assay [2] (setting [4]) and 1 to 10 µM in assay [3].

As to `COc1cc(OC)cc(-c2nc(Nc3cc(C)[nH]n3)cc(N3CCN(C)CC3)n2)c1` [Example 191, 2-(3,5-dimethoxyphenyl)-N-(5-methyl-1H-pyrazol-3-yl)-6-(4-methylpiperazin-1-yl)pyrimidin-4-amine], the IC50 in assay [1] and in assay [2] (40 minutes at room temperature) was no more than 100 nM throughout. Besides, in assay [3], the GI50 was no more than 1000 nM.

In the case of `COCCN(C)c1cc(Nc2cc(C)[nH]n2)nc(-c2ccc3c(c2)OCO3)n1` [Example 153, 2-(benzo[d][1,3]dioxol-5-yl)-N^4-(2-methoxyethyl)-N^4-methyl-N^6-(5-methyl-1H-pyrazol-3-yl)pyrimidine-4,6-diamine], the IC50 in assay [1] was no more than 100 nM; in assay [2] (setting [4]) it was no more than 1000 nM; in assay [3], 1 to 10 µM.

`Cc1cc(Nc2cc(NC3CCOCC3)nc(-c3ccc(Cl)cc3)n2)n[nH]1` [Compound 22, 2-(4-chlorophenyl)-N^4-(5-methyl-1H-pyrazol-3-yl)-N^6-(tetrahydro-2H-pyran-4-yl)pyrimidine-4,6-diamine]: the IC50 in assay [1] is no more than 100 nM; in assay [2] (setting [4]) it was no more than 1000 nM; in assay [3], 1 to 10 µM.

`Cc1cc(Nc2cc(NC3CCOCC3)nc(-c3ccc4c(c3)OCO4)n2)n[nH]1` [Example 132, 2-(benzo[d][1,3]dioxol-5-yl)-N^4-(5-methyl-1H-pyrazol-3-yl)-N^6-(tetrahydro-2H-pyran-4-yl)pyrimidine-4,6-diamine]: the IC50 in assay [1] is no more than 100 nM; in assay [2] (40 minutes at room temperature), no more than 100 nM; in assay [3] it was 1 to 10 µM.

As for `COc1ccc(-c2nc(Nc3cc(C)[nH]n3)cc(N3CCN(C)CC3)n2)cc1` [Compound 41, 2-(4-methoxyphenyl)-N-(5-methyl-1H-pyrazol-3-yl)-6-(4-methylpiperazin-1-yl)pyrimidin-4-amine], the IC50 in assay [1] and in assay [2] (40 minutes at room temperature) was no more than 100 nM each time. In addition, the GI50 in assay [3] was no more than 1000 nM.

For `Cc1cc(Nc2cc(N3CCN(C)CC3)nc(-c3ccc4c(c3)OCO4)n2)n[nH]1` [Example 139, 2-(benzo[d][1,3]dioxol-5-yl)-N-(5-methyl-1H-pyrazol-3-yl)-6-(4-methylpiperazin-1-yl)pyrimidin-4-amine], the IC50 in assay [1] and in assay [2] (40 minutes at room temperature) was no more than 100 nM throughout. In addition, in assay [3], the GI50 was no more than 1000 nM.

`COc1cccc(-c2nc(Nc3cc(C)[nH]n3)cc(N3CCN(C)CC3)n2)c1` [Compound 42, 2-(3-methoxyphenyl)-N-(5-methyl-1H-pyrazol-3-yl)-6-(4-methylpiperazin-1-yl)pyrimidin-4-amine]: the IC50 in assay [1] and in assay [2] (40 minutes at room temperature) was no more than 100 nM each time. Further, in assay [3], the GI50 is no more than 1000 nM.

As for `Cc1ccc(F)c(-c2nc(Nc3cc(C)[nH]n3)cc(N3CCN(C)CC3)n2)c1` [Example 193, 2-(2-fluoro-5-methylphenyl)-N-(5-methyl-1H-pyrazol-3-yl)-6-(4-methylpiperazin-1-yl)pyrimidin-4-amine], the values for the IC50 in assay [1], in assay [2] (40 minutes at room temperature) and in assay [3] were no more than 100 nM, no more than 100 nM and 1 to 10 µM, respectively.

Turning to `Cc1cc(Nc2cc(N3CCN(C)CC3)nc(-c3cccc(F)c3F)n2)n[nH]1` [Example 200], the IC50 in assay [1] and in assay [2] (40 minutes at room temperature) was no more than 100 nM each time. In addition, in assay [3], the GI50 is no more than 1000 nM.

Take `CC(=O)N1CCN(c2cc(Nc3cc(C)[nH]n3)nc(-c3cc4ccccc4n3C)n2)CC1` [Compound 6, 1-(4-(6-(5-methyl-1H-pyrazol-3-ylamino)-2-(1-methyl-1H-indol-2-yl)pyrimidin-4-yl)-piperazin-1-yl)ethanone]: the IC50 in assay [1] and in assay [2] (40 minutes at room temperature) was no more than 100 nM throughout. Besides, the GI50 in assay [3] is no more than 1000 nM.

For the molecule `Cc1cc(C)cc(-c2nc(Nc3cc(C)[nH]n3)cc(N3CCN(C)CC3)n2)c1` [Example 169, 2-(3,5-dimethylphenyl)-N-(5-methyl-1H-pyrazol-3-yl)-6-(4-methylpiperazin-1-yl)pyrimidin-4-amine], the IC50 in assay [1] and in assay [2] (40 minutes at room temperature) was no more than 100 nM throughout. Further, the GI50 in assay [3] was no more than 1000 nM.

On to `COc1ccc(F)c(-c2nc(Nc3cc(C)[nH]n3)cc(N3CCN(C)CC3)n2)c1` [Example 197, 2-(2-fluoro-5-methoxyphenyl)-N-(5-methyl-1H-pyrazol-3-yl)-6-(4-methylpiperazin-1-yl)pyrimidin-4-amine], for which the IC50 in assay [1] and in assay [2] (40 minutes at room temperature) was no more than 100 nM throughout. Besides, the GI50 in assay [3] was no more than 1000 nM.

For the molecule `Cc1cc(Nc2cc(N3CCN(C)CC3)nc(-c3ccc(Cl)cc3)n2)n[nH]1` [Compound 35, 2-(4-chlorophenyl)-N-(5-methyl-1H-pyrazol-3-yl)-6-(4-methylpiperazin-1-yl)pyrimidin-4-amine], the IC50 was no more than 100 nM in assay [1], no more than 100 nM in assay [2] (40 minutes at room temperature) and 1 to 10 µM in assay [3].

By IC50 is commonly meant the concentration that gives 50% inhibition. What is called GI50 is the concentration giving 50% growth inhibition.

Values taken from patent US20090029992A1, “SUBSTITUTED PYRAZOLE COMPOUNDS” (priority 2007, published 2009).
